Results reported in patent publication US20240299393A1, “SMALL MOLECULE DISRUPTORS OF PROTEIN INTERACTIONS IN HISTONE DEACETYLASE COMPLEXES” (Dana-Farber Cancer Institute, Inc., priority 2021, published 2024).
Entries after “also recorded” stand apart in the source; their conditions may differ.

How the values were obtained:
[1] = system: full-length G. princeps luciferase; experiment: GPCA control with full-length luciferase; type: cell-based, Gaussia princeps; conditions: 16 h
Method: The ability of compounds to inhibit binary PPIs in the Sin3/Rpd3L HDAC complex was tested by GPCA in a high-throughput screening format. Interactions identified in the mapping at 1.0% […]2 detection cutoff were reconstituted by expressing protein pairs in the exact same orientations. […] HEK293T cells were transfected with 100 ng of each GPCA plasmid expressing either protein X, or protein Y, as described above. […] The luminescence signal for each PPI was measured by averaging the different DMSO replicates, and calculating the standard deviation of DMSO values for each interaction. For each PPI, an individual data point for every compound tested was obtained and this value was compared to the averaged DMSO value. For each interaction, a particular compound was scored as a PPI inhibitor when it decreased its luminescence signal by at least three standard deviations compared to the corresponding averaged DMSO value. […] 50 μL/well of the Renilla luciferase substrate (Renilla Luciferase Assay system, cat #E2820, Promega) were then added and luminescence was read approximately two minutes after injection using a Centro XS^3 LB960 plate reader (3 s integration). For each plate, signal was measured twice and the first measurement was used for calculations. Results were normalized by averaging raw luminescence values from DMSO wells and dividing each data point by this averaged value.

[2] = target: T1, PAH2 domain of mouse M. musculus SIN3B (Mus musculus, UniProt Q62141, C241A); experiment: Ligand-detected NMR, mouse SIN3B PAH2; type: binding
T1 construct: M. musculus SIN3B PAH2 C241A (residues 148-252) expressing plasmid; GST (cleaved yes); made in house; host or cells: E. coli BL21 (DE3), minimal medium with 15N-ammonium chloride and 13C-glucose
T1 sequence (Q62141 148-252 C241A): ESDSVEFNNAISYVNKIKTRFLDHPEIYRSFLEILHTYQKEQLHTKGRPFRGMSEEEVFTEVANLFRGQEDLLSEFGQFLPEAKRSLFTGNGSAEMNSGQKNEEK
Method: Expression of mouse ^13C/^15N SIN3B PAH2: the same M. musculus SIN3B PAH2 C241A (residues 148-252) expressing plasmid as reported by [Kumar et al 2011] was used here. The construct was overexpressed in E. coli BL21 (DE3) in 1 L of minimum medium supplemented with 1 g 15N-ammonium chloride (Cambridge Isotope Laboratories) and 2 g 13C-glucose (Cambridge Isotope Laboratories). Cells were grown at 37° C. to an OD of 0.8, cooled to 17° C., induced with 500 μM isopropyl-1-thio-D-galactopyranoside, incubated overnight at 17° C., collected by centrifugation, and stored at −80° C. 13C/15N-double labeled protein was purified as for other GST-fused constructs. The GST tag was cleaved as described above.
Ligand-detected NMR experiments: all results were acquired using a 3 mm tube at 25° C. on a Bruker 600 MHz Avance II system equipped with a CPPTCI cryoprobe (Bruker BioSpin Corp.). In all experiments, the concentration of E6R was fixed at 300 μM (from a stock of 25 mM in deuterated DMSO) and the concentration of the protein at 10 μM. The volume of deuterated DMSO was kept constant (1.5%) in all tested samples. […] Proton spectra used to measure DLB and chemical shift perturbations in the absence and presence of the proteins were recorded with 16 scans using a recycle delay of 3 s. […]

human SIN3B PAH2 domain = target: T2, human SIN3B PAH2 domain (Homo sapiens, UniProt O75182); experiment: Ligand-detected NMR, human SIN3B PAH2; type: binding, H. sapiens; conditions: 300 μM compound, 10 μM protein
T2 construct: Residues 155-241 of human SIN3B (PAH2 domain) were inserted into the pMALC2XE vector for NMR experiments; made in house; host or cells: E. coli BL21 (DE3)
T2 sequence (O75182 155-241): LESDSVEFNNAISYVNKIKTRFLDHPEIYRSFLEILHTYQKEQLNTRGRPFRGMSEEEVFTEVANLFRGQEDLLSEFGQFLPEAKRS
Method: Ligand-detected NMR experiments: all results were acquired using a 3 mm tube at 25° C. on a Bruker 600 MHz Avance II system equipped with a CPPTCI cryoprobe (Bruker BioSpin Corp.). In all experiments, the concentration of E6R was fixed at 300 μM (from a stock of 25 mM in deuterated DMSO) and the concentration of the protein at 10 μM. The volume of deuterated DMSO was kept constant (1.5%) in all tested samples. Right before the experiments, the compound and protein were diluted in 1×PBS containing 0.1% deuterated dithiothreitol (DTT) to a total volume of 200 μL. Samples were diluted by 5% with D2O for magnetic field lock. Spectra were acquired for ligand only, protein only, and ligand+protein. […] STD experiments [Mayer et al 2001] were acquired with 160 scans, with protein irradiation applied for 3 s at 0 ppm and −20 ppm for the on and off resonance experiments, respectively. On and off resonance spectra were collected and stored separately. One-dimensional CPMG-R2 edited experiments [Hajduk et al 1997] were collected for samples with and without proteins using seven CPMG delays (0, 25, 50, 100, 300, 500, and 800 ms) with four scans per delay. Proton spectra used to measure DLB and chemical shift perturbations in the absence and presence of the proteins were recorded with 16 scans using a recycle delay of 3 s. […]

| Compound | effect on full-length G. princeps luciferase [1] | binding to mouse SIN3B PAH2 by NMR [2] | binding to human SIN3B PAH2 by NMR (human SIN3B PAH2 domain) |
| --- | --- | --- | --- |
| CC(NC(=O)c1c(O)n2ccccc2nc1=O)c1ccccc1 (racemic) [E6] | does not perturb | – | – |
| C[C@@H](NC(=O)c1c(O)n2ccccc2nc1=O)c1ccccc1 [E6R, 4-hydroxy-2-oxo-N—((R)-1-phenylethyl)-3,4-dihydro-2H-pyrido[, 2-a]pyrimidine-3-carboxamide] | – | virtually identical to those of yeast Sin3 PAH2 | could bind; also recorded: virtually identical to those of yeast Sin3 PAH2 |
